# Assay results from patent US11554182B2, “Macrocyclic complexes of alpha-emitting radionuclides and their use in targeted radiotherapy of cancer” (CORNELL UNIVERSITY, priority 2017, dated 2023).
# Assay: In vivo biodistribution of ^225Ac complexes after intravenous injection
# Set-up: species or system C57BL/6 mice
# Protocol: In Vivo Biodistribution of ^225Ac Complexes of Macropa and DOTA. All experiments were approved by the Institutional Animal Care Committee (IACC) of the University of British Columbia and were performed in accordance with the Canadian Council on Animal Care Guidelines. A total of 9 female C57BL/6 mice (6-8 weeks old, 20-25 g) were used for the biodistribution study of each radiometal complex, n=3 for each time point.
# Macropa (100 μL of a 1 mg/mL solution in NH4OAc) was diluted with 387 μL of NH4OAc (1 M, pH 7), and an aliquot (203 μL) of ^225Ac(NO3)3 (˜157 kBq) was then added; the pH of this solution was adjusted to 6.5-7 by the addition of 1 M NaOH (210 μL, trace metal grade). After 5 min at ambient temperature, the reaction solution was analyzed by TLC (0.4 M pH 4 sodium citrate as the eluent), which confirmed >95% radiochemical yield. The reaction was allowed to proceed overnight, and the radiochemical yield was again confirmed to be >95% the following morning. At this time, mice were anesthetized by 2% isoflurane, and approximately 100 μL (10-15 kBq) of the [^225Ac(macropa)]^+ complex were injected into the tail vein of each mouse. After injection, mice were allowed to recover and roam freely in their cages, and were euthanized by CO2 inhalation at 15 min, 1 h, or 5 h (n=3 at each time point) post-injection. Blood was collected by cardiac puncture and placed into an appropriate test tube for scintillation counting. Tissues collected included heart, liver, kidneys, lungs, small intestine, large intestine, brain, bladder, spleen, stomach, pancreas, bone, thyroid, tail, urine, and feces. Tissues were weighed and then counted with a calibrated gamma counter (Packard, Cobra II model 5002) using three energy windows: 60-120 keV (window A), 180-260 keV (window B), and 400-480 keV (window C). Counting was performed both immediately after sacrifice and after 7 days; counts were decay corrected from the time of injection and then converted to the percentage of injected dose (% ID) per gram of tissue (% ID/g). No differences were noted between the data; therefore, the biodistributions are reported using the data acquired immediately using window A.
# The biodistribution studies of [^225Ac(DOTA)]^− and ^225Ac(NO3)3 were carried out as described above for [^225Ac(macropa)]^+, with the following modifications. [^225Ac(DOTA)]^− was prepared by adding ^225Ac(NO3)3 (338 μL, 1.1 MBq) to a solution of DOTA (100 μg, 20 mg/mL in H2O) in NH4OAc (467 μL, 0.15 M, pH 7). The pH of the solution was adjusted to 7 using NH4OAc (150 μL, 1 M, pH 7) and the solution was heated at 85° C. for 45 min. RCY>99% was confirmed by TLC as described above. [^225Ac(DOTA)]^− was diluted with saline to a final concentration of 0.05 MBq/100 μL, and 100 μL were injected into each mouse. ^225Ac(NO3)3 (˜58 μL, 0.4 MBq) was diluted and injected in the same manner as [^225Ac(DOTA)]^−. One mouse that was to be euthanized at the 5 h time point in the [^225Ac(DOTA)]^− study died shortly after injection. In the same manner, one mouse that was to be euthanized at the 1 h time point in the ^225Ac(NO3)3 study died.
# The in vivo stability [^225Ac(macropa)]^+ was examined by comparing its biodistribution to those of ^225Ac(NO3)3 and [^225Ac(DOTA)]^−. C57BL/6 mice were injected via tail vein with 10-50 kBq of each radiometal complex and were sacrificed after 15 min, 1 h, or 5 h. The amount of ^225Ac retained in each organ was quantified by gamma counting and reported as the percent of injected dose per gram of tissue (% ID/g). The results of these studies are compiled in Tables 1-3. Inadequate stability of an ^225Ac complex leading to the loss of radioisotope in vivo is manifested by the accumulation of ^225Ac in the liver, spleen, and bone of mice.^[11,12,32] […] The biodistribution profile of [^225Ac(macropa)]^+ (FIG. 3B) differs markedly from that of ^225Ac(NO3)3. […]
# [1] = 1 h after i.v. injection, energy window B (180-260 keV)
# [2] = 1 h after i.v. injection, energy window C (400-480 keV)
# [3] = 5 h after i.v. injection, energy window A (60-120 keV)
# [4] = 5 h after i.v. injection, energy window B (180-260 keV)
# [5] = 5 h after i.v. injection, energy window C (400-480 keV)
# [6] = i.v. injection, C57BL/6 mice, up to 5 h
compound,measurement,setting,value
O=[N+]([O-])[O-].O=[N+]([O-])[O-].O=[N+]([O-])[O-].[225Ac] [^225Ac(NO3)3],% ID/g in lungs,[1],8.4426 % ID/g
same,% ID/g in pancreas,[1],2.1579 % ID/g
same,% ID/g in small intestines,[1],1.5192 % ID/g
same,% ID/g in spleen,[1],37.1540 % ID/g
same,% ID/g in stomach,[1],1.5867 % ID/g
same,% ID/g in tail,[1],6.4201 % ID/g
same,% ID/g in thyroids,[1],5.7426 % ID/g
same,% ID/g in urine,[1],7.0564 % ID/g
same,% ID/g in bladder,[2],2.2929 % ID/g
same,% ID/g in blood,[2],11.3736 % ID/g
same,% ID/g in bone (femur + joint),[2],2.7213 % ID/g
same,% ID/g in brain,[2],0.4402 % ID/g
same,% ID/g in feces,[2],0.1122 % ID/g
same,% ID/g in heart,[2],3.3464 % ID/g
same,% ID/g in kidneys,[2],6.2070 % ID/g
same,% ID/g in large intestines,[2],0.4366 % ID/g
same,% ID/g in liver,[2],23.6180 % ID/g
same,% ID/g in lungs,[2],5.2078 % ID/g
same,% ID/g in pancreas,[2],1.8508 % ID/g
same,% ID/g in small intestines,[2],3.5548 % ID/g
same,% ID/g in spleen,[2],38.1082 % ID/g
same,% ID/g in stomach,[2],2.3350 % ID/g
same,% ID/g in tail,[2],9.0877 % ID/g
same,% ID/g in thyroids,[2],0.0000 % ID/g
same,% ID/g in urine,[2],104.9103 % ID/g
same,% ID/g in bladder,[3],1.4947 % ID/g
same,% ID/g in blood,[3],1.9886 % ID/g
same,% ID/g in bone (femur + joint),[3],3.5460 % ID/g
same,% ID/g in brain,[3],0.0452 % ID/g
same,% ID/g in feces,[3],0.9445 % ID/g
same,% ID/g in heart,[3],1.3450 % ID/g
same,% ID/g in kidneys,[3],4.6910 % ID/g
same,% ID/g in large intestines,[3],0.6479 % ID/g
same,% ID/g in liver,[3],59.8156 % ID/g
same,% ID/g in lungs,[3],4.1871 % ID/g
same,% ID/g in pancreas,[3],0.4874 % ID/g
same,% ID/g in small intestines,[3],1.3704 % ID/g
same,% ID/g in spleen,[3],62.9614 % ID/g
same,% ID/g in stomach,[3],2.6131 % ID/g
same,% ID/g in tail,[3],23.4055 % ID/g
same,% ID/g in thyroids,[3],-2.7052 % ID/g
same,% ID/g in urine,[3],4.8267 % ID/g
same,% ID/g in bladder,[4],1.5234 % ID/g
same,% ID/g in blood,[4],2.0018 % ID/g
same,% ID/g in bone (femur + joint),[4],3.8533 % ID/g
same,% ID/g in brain,[4],0.0290 % ID/g
same,% ID/g in feces,[4],1.0201 % ID/g
same,% ID/g in heart,[4],1.3948 % ID/g
same,% ID/g in kidneys,[4],3.8752 % ID/g
same,% ID/g in large intestines,[4],0.6744 % ID/g
same,% ID/g in liver,[4],62.0765 % ID/g
same,% ID/g in lungs,[4],4.3379 % ID/g
same,% ID/g in pancreas,[4],0.4455 % ID/g
same,% ID/g in small intestines,[4],1.2201 % ID/g
same,% ID/g in spleen,[4],65.9117 % ID/g
same,% ID/g in stomach,[4],2.5322 % ID/g
same,% ID/g in tail,[4],25.4744 % ID/g
same,% ID/g in thyroids,[4],−4.6044 % ID/g
same,% ID/g in urine,[4],3.3142 % ID/g
same,% ID/g in bladder,[5],3.4975 % ID/g
same,% ID/g in blood,[5],2.1769 % ID/g
same,% ID/g in bone (femur + joint),[5],3.5851 % ID/g
same,% ID/g in brain,[5],0.0430 % ID/g
same,% ID/g in feces,[5],0.8535 % ID/g
same,% ID/g in heart,[5],1.2018 % ID/g
same,% ID/g in kidneys,[5],4.2061 % ID/g
same,% ID/g in large intestines,[5],1.0259 % ID/g
same,% ID/g in liver,[5],54.1727 % ID/g
same,% ID/g in lungs,[5],5.4923 % ID/g
same,% ID/g in pancreas,[5],0.4643 % ID/g
same,% ID/g in small intestines,[5],1.2922 % ID/g
same,% ID/g in spleen,[5],62.2357 % ID/g
same,% ID/g in stomach,[5],2.0358 % ID/g
same,% ID/g in tail,[5],28.4443 % ID/g
same,% ID/g in thyroids,[5],-0.4455 % ID/g
same,% ID/g in urine,[5],5.8548 % ID/g
same,clearance from blood / mice (in words),[6],slow blood clearance and excretion
same,organ accumulation (in words),[6],large accumulation in the liver and spleen
